Laboratory results reported in publication PMC12207360, “Hyperpolarization Modulation of the T‐Type hCav3.2 Channel by Human Synenkephalin [1–53], a Shrew Neurotoxin Analogue without Paralytic Effects” (Angewandte Chemie (International Ed. in English), 2025).
Where no end group is shown, it is not given here.

Tests used:
[1] = tested on: human T-type voltage-gated calcium channel (hCav3.2); assay: Whole-cell patch-clamp of voltage-gated Ca2+ currents in HEK293T cells expressing hCav3.2; type: cell-based; conditions: 0.74 µM, n = 5
Protocol: Normalized conductance (G/G max) was generated for both data sets, fit to a Boltzmann equation, and is shown as data ± S.E.M. (n = 5). Statistical analyses were performed using Dunnett's multiple comparison tests. ^* p < 0.05 versus control. […]
Electrophysiological assays were done on human Cav3.2 channel, which was expressed on human embryonic kidney 293T (HEK293T) cells using Lipophectamine® 3000 transfection reagent. A pcDNA3 plasmid construct containing the complete sequence coding the human α1H-subunit of the Cav3.2 channel flanked by a green fluorescent protein was kindly provided by Prof. Edward Perez–Reyes (University of Virginia, Charlottesville, Virginia, USA).S1 Vo l t a g e-gated Ca2+ currents were recorded by the whole-cell patch-clamp technique, as previously described.28,S2 This recording was performed in the whole-cell conﬁguration using an Axopatch 200B Ampliﬁer (Axon CNS, Molecular Devices) at a holding potential of –90 mV. Cells were depolarized from the –90 mV holding potential to +80 mV with +10 mV voltage steps of 200 ms. The current amplitude was measured at the peak. The current density was determined with the cell capacitance to establish the density-voltage curves.
The currents were ﬁltered at 2 kHz and sampled at 5 kHz using an A/D converter, the Digidata 1440A (Axon CNS, Molecular Devices). The leak was subtracted automatically by a P/4 protocol (pclamp10, Axon CNS, Molecular Devices). For the recording Ca2+ currents, the bath solution contained 125 mM N-methyl-D-glucamine, 5 mM 4-aminopyridine, 20 mM tetraethylammonium chloride, 2 mM CaCl2, 2 mM MgCl2, and 10 mM D-glucose and was buffered to pH 7.4 with 10 mM HEPES. The patch pipettes were ﬁlled with solution containing 130 mM CsCl, 10 mM EGTA, 3 mM Mg–AT P, a n d 0 . 4 m M Li–GTP with the pH adjusted to 7.2 by 25 mM HEPES. Statistical analyses were performed using Dunnett’s multiple comparison tests. *, p < 0.05 versus control.
Circular dichroism spectrometry and stereostructure prediction of hSYN. […]
In brief, synthetic hSYN [1–53] (2) was dissolved in 50 mM KHPO4, pH 7.0 (ﬁnal concentration: 20 μM) in a 1 mm pathlength cell. The spectrum consisted of ﬁve scans acquired with a scan rate of 20 nm/min and a digital integration time of 2 sec. […]
Schrödinger, LLC) was used for calculation of surface charge and final image processing which suitable for scientific

trypsin = assay: Trypsin digestion; conditions: intact peptide, without disulfide reduction
Protocol: (§1) To determine the connectivity of disulfide bonds in synthetic 2, enzymatic digestion and subsequent fragment peptide analysis were performed. […] However, due to high proteolytic stability, analysis of these degraded products provided little information on the disulfide bond connectivity in 2. To perform stepwise S‐alkylation with limiting reduction of disulfide bonds,^[ [52], [53] ^] 2 was denatured with 6 M aq. guanidine hydrochloride (GdmCl)/0.1 M aq. citrate, followed by tris(2‐carboxyethyl)phosphine (TCEP) reduction and Michael addition to N‐ethylmaleimide (NEM). As a result, we obtained six kinds of S‐alkylated products (2SS‐a/b/c and 1SS‐a/b/c) with one or two disulfide bonds cleaved, respectively, along with unreacted 2 (3SS) and a fully S‐alkylated product (0SS) (Scheme 1a and Figure S4a). HPLC‐purified 1SS‐a (3) and 1SS‐b (4), which have different patterns of four Cys(S‐Nem) residues, were then reduced with DTT and alkylated with iodoacetamide.

several enzymes = assay: Susceptibility to several enzymes / degradation; conditions: intact hSYN; compared with paralytic effect of BPP2 on mealworms
Protocol: as §1

human synenkephalin [1–53] (ECSQDCATCSYRLVRPADINFLACVMECEGKLPSLKIWETCKELLQLSKPELP; disulfide (positions not given here); also: Type II disulfides, places not given here; UniProt P01210 25-77, looked up, fragment) [compound 2, human synenkephalin N-terminal part [1–53], three disulfide bonds Cys(I)–Cys(V), Cys(II)–Cys(IV), Cys(III)–Cys(VI)]
lowest current density peak ([1]; at −30 mV (control ca. −59 pA/pF at −10 mV)): ca. −42 pA/pF
voltage of lowest current density peak ([1]; control peak at −10 mV): −30 mV
current density at 0 to +20 mV ([1]; suggesting a block at higher membrane depolarization): significantly reduced
hyperpolarization shift of hCav3.2 activation ([1]; whole-cell patch clamp, HEK293T cells, holding potential –90 mV, pH 7.4, Boltzmann fit, ± S.E.M., p < 0.05 versus control): −15 mV
proteolytic stability toward trypsin (trypsin): partially digested
enzymatic degradation (several enzymes): susceptible to several enzymes, its degradation was much slower than the paralytic effect of BPP2 on mealworms
